Results reported in patent publication US11591300B2, “Oxazole containing compounds as activators of IDO1 and AhR” (The Brigham and Women's Hospital, Inc., priority 2017, dated 2023).

Legend:
[1] = tested on: MODE-K cells; test: CD1d-restricted IL-10 production in MODE-K:NKT cell hybridoma co-culture; format: cell-based, mouse; settings: for effect of the supplement on IEC responses to oxazolone (CD1d-restricted IL-10 production): tryptophan-deficient media, oxazolone stimulation
[2] = tested on: MODE-K cells; test: Relative transcript abundance of target genes in MODE-K cells conditioned with compounds; settings: for Mttp transcripts / Ido1 transcripts: MODE-K cells conditioned with compound, normalized to β-actin
Source text: 4-ethoxymethylene-2-phenyl-2-oxazol-5-one, (referred to as oxazolone, FIG. 1A) has been widely utilized in models of contact hypersensitivity and when applied to the mucosa has been proposed to cause colitis through its properties as a hapten (Gorbachev and Fairchild 2001). However to date there is limited evidence for hapten-specific antibody production or responses following topical oxazolone sensitization or hapten modified autologous proteins or luminal antigens identified at mucosal sites (Singleton et al. 2016, Yanaba et al. 2008, Wirtz et al. 2007). […] It was then determined whether oxazolone could affect the expression of these transcripts in the intestinal epithelium in a cell intrinsic manner by directly stimulating an immortalized intestinal epithelial cell line (IEC) derived from mouse small intestine, MODE-K, with oxazolone.
To test this, a systematic in vitro system was devised to assess transcriptional and CD1d-restricted responses in IECs in response to stimulation with dietary OxC structures, including 2,4,5-trimethyl-2,5-dihydro-1,3-oxazole (referred to as TMO, FIG. 1A) found in coffee, peanuts, meats and utilized as a food additive, which lacks the 2-phenyl ring, 5-ketone, and 4-ethoxymethylene present in oxazolone (Vitzthum et al. 1975, Stoffesima et al. 1968, Lee et al. 1981, Chang et al. 1968, Ho and Hartman 1968).

[3] = target: recombinant IDO1 (Homo sapiens, UniProt P14902); test: Recombinant IDO1 conversion of L-tryptophan to formyl-kyneurenine; format: biochemical; settings: compared to control (TMC) or vehicle
[4] = Wambaugh et al. 2014; cited from earlier work
[5] = tested on: primary hepatocytes; test: IL-10 production from primary hepatocytes co-cultured with 24.7 iNKT hybridoma; settings: response to iNKT cells in the presence of α-GC
[6] = tested on: MODE-K cells; test: Surface CD1d loaded with α-GC (L363 antibody staining) in MODE-K cells; format: cell-based, mouse
Source text: In light of the decreased MTP expression observed in oxazolone treated IECs (FIG. 1B) and given that MTP loss alters the ability of CD1d to acquire exogenous antigens, such as α-GC, and CD1d elicited IL-10 responses by epithelial cells (Dougan et al. 2005, Dougan et al. 2007, Zeissig et al 2017, Sagiv et al. 2007, Brozovic et al. 2004, Olszak et al. 2014), it was investigated whether CD1d expression and lipid loading on oxazolone conditioned IECs.

[7] = tested on: C57Bl/6 mice; test: Intra-rectal administration, colonic inflammation in vivo; set-up: species or system mouse
Protocol: It was tested whether a dietary sourced minimal oxazole structure was sufficient to induce intestinal inflammation in vivo. […] To confirm this, the ability of oxazolone skin pre-sensitization to affect the responses to rectal challenge with TMO and vice-versa (FIG. 9D).
Next, it was tested whether B17 microcin derivatives could induce intestinal inflammation in vivo. Therefore, adequate quantities of a minimal B17 derivative (termed frag-oz, FIG. 2D) were synthesized to perform in vivo experiments and challenged animals via intra-rectal administration. […] These studies identify an oxazole containing microbial mimic that promotes CD1d-dependent intestinal inflammation independent of its classical anti-microbial activity.
These studies reveal a novel role for epithelial derived AhR signals in promoting mucosal inflammation when exposed to OxC.

[8] = tested on: IECs; test: LC-MS of deuterated L-trp (D5-Trp) metabolites in IEC lysates; format: cell-based; settings: within 6 hours of exposure
Protocol: IDO1 is a rate-limiting enzyme involved in tryptophan catabolism that generates formyl-kyneurenine which can be further metabolized into a variety of AhR agonists (Higuchi and Hayaishi Arch Biochem Biophys 1967, Nguyen and Bradfield 2008, Zelante et al. 2014). […] To specifically identify these tryptophan derived products, IECs were cultured with deuterated L-trp (D5-Trp) and performed high performance liquid chromatography mass spectrometry (LC-MS) on lysates stimulated with oxazolone, TMO, frag-oz or TMC control (FIG. 5C). […] Taken together these latter studies are consistent with a model in which exposure of IECs to oxazole containing compounds leads to the activation of IDO1 and generation of tryptophan-derived metabolites that induce the AhR pathway to downregulate CD1d-restricted responses associated with the production of IL-10 (FIG. 6).

[9] = target: T1, aryl hydrocarbon receptor (AhR) (Mus musculus, UniProt P30561); test: AhR firefly luciferase reporter in IECs; format: cell-based; settings: compared to vehicle or 1,2,4-trimethylcyclopentane
T1 construct: IECs were transfected with an AhR firefly luciferase reporter; endogenous in cells; host or cells: MODE-K (mouse intestinal epithelial cell line)
T1 sequence (P30561 10-848): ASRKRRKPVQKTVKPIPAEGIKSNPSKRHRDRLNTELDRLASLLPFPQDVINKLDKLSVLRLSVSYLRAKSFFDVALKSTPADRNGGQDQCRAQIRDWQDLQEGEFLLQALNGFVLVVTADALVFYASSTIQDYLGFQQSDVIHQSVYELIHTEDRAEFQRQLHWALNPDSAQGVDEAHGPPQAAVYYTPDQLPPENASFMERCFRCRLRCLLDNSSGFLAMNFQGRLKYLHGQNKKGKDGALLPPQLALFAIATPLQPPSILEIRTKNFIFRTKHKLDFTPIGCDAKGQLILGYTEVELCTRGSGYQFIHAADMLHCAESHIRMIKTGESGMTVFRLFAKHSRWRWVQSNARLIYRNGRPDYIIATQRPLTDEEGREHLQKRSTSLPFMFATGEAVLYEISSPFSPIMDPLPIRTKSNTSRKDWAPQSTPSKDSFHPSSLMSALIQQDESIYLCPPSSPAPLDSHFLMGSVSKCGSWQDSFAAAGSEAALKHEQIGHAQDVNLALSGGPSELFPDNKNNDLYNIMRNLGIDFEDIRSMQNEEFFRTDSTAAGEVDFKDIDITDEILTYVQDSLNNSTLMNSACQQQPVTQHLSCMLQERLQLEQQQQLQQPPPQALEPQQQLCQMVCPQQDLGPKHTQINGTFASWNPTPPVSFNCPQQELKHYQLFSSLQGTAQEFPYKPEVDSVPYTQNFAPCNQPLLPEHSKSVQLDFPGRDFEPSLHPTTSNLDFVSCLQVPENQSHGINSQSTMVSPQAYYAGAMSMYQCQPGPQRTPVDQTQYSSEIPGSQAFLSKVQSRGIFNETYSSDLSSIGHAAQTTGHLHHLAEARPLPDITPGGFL

[10] = target: T2, AhR (Homo sapiens, UniProt P35869); settings: Wambaugh et al. 2014, Dierickx 2004; cited from earlier work
T2 sequence (P35869 11-848): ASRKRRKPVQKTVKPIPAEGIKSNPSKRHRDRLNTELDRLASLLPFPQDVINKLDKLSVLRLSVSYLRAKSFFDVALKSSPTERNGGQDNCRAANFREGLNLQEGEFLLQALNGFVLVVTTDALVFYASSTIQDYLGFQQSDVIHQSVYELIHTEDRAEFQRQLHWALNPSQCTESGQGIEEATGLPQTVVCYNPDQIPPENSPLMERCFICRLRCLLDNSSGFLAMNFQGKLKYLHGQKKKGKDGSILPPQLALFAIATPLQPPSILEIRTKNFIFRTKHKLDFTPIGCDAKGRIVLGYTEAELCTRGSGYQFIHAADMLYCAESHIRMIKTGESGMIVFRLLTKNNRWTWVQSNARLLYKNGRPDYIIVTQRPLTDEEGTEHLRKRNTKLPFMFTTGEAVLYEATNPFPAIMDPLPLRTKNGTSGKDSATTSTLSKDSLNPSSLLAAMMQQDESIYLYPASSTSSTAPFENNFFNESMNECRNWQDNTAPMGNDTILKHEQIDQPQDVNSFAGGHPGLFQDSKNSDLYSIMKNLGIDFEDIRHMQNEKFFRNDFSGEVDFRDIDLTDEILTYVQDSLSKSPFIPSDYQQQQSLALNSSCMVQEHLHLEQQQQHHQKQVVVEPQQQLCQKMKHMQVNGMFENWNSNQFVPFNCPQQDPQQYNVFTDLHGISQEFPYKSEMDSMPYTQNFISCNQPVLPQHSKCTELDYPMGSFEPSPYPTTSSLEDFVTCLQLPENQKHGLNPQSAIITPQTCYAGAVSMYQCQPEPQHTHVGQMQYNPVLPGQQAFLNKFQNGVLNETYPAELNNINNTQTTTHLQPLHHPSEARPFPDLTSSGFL

[11] = tested on: IECs; test: In vitro system to assess transcriptional and CD1d-restricted responses in IECs (FIG. 13 summary); format: cell-based
[12] = MODE-K pre-conditioned with compound, loaded with α-GC, co-culture with 24.7 iNKT hybridoma
[13] = supplement alone or in conjunction with TMC stimulation
[14] = IEC enriched colonic fractions after intra-rectal administration
[15] = intra-rectal administration, wildtype

recombinant IDO1, sequence (P14902 whole entry, species assumed): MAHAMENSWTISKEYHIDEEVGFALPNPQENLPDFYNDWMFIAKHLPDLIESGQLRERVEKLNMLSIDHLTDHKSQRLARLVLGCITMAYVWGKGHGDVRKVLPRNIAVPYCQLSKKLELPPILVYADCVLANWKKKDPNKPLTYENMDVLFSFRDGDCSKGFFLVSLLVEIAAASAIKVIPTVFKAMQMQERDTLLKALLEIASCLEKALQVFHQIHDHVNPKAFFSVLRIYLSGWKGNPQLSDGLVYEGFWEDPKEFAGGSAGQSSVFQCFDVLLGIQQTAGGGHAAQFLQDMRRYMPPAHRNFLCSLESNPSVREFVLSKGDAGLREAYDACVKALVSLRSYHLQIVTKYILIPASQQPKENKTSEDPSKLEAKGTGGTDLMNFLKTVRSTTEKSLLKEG

Cn1cc(C[C@@H](N)C(=O)O)c2ccccc21 (racemic) [DL-methyl tryptophan, reference compound]
effect of the supplement on IEC responses to oxazolone (CD1d-restricted IL-10 production) [1]: did not restore suppression

CC1=NCCC1 [1-MP, 2-methyl-1-pyrroline, reference compound]
Cyp1a1 transcripts [2]: did not elicit any transcriptional changes | Mttp transcripts [2]: did not elicit any transcriptional changes

COC(=O)c1csc(C(=O)c2c[nH]c3ccccc23)n1 [ITE, 2-(H-Indol-3-carbonyl)-4-thiazolecarboxylic acid methyl ester, reference compound]
CD1d-restricted IL-10 production [1, 12]: did not modulate | Mttp transcripts [2]: did not modulate

N[C@@H](Cc1c[nH]c2ccccc12)C(=O)O [L-Trp, L-tryptophan, reference compound]
CD1d-restricted IL-10 production [1, 13]: had no effect | effect of the supplement on IEC responses to oxazolone (CD1d-restricted IL-10 production) [1]: restored IEC responses to oxazolone

CC1CC(C)C(C)C1 (stereo not shown) [TMC, 1,2,4-trimethyl cyclopentane, reference compound]
Cyp1a1 transcripts [2]: did not elicit any transcriptional changes | Mttp transcripts [2]: did not elicit any transcriptional changes

CC1=NC(C)OC1C (stereo not shown) [TMO, 2,4,5-trimethyl-2,5-dihydro-1,3-oxazole]
ability of IDO1 to convert tryptophan to formyl-kyneurenine [3]: enhanced | compound induced inhibition of CD1d-restricted IL-10 production when AhR expression is silenced ([1]; AhR siRNA, IEC:iNKT cell co-cultures): reversed | CD1d-restricted IL-10 production ([1]; IECs cultured in tryptophan-deficient media): no longer attenuated | CD1d-restricted IL-10 production [1, 12]: limited | IL-10 production ([1]; tryptophan-deficient conditions supplemented with kyneurenic acid): decreased IL-10 production | decrease of IL-10 production when AhR was silenced ([1]; tryptophan-deficient conditions supplemented with kyneurenic acid, AhR siRNA): reduced when AhR was silenced | CD1d-restricted IL-10 production ([1]; tryptophan-deficient media supplemented with exogenous L-tryptophan): attenuation of CD1d-restricted IL-10 production | detection in human urine [4]: detected in human urine | compound induced inhibition of IL-10 production in hepatocytes from Ahr−/− mice [5]: resistance | compound induced reduction of cell surface CD1d lipid antigen loading when AhR expression is silenced ([6]; AhR siRNA): reversed | loading of α-GC on CD1d at the cell surface (L363 staining) ([6]; MODE-K cells conditioned with compound): decreased cell surface staining | Cyp1a1 transcripts in IEC in vivo [7, 14]: induction of cyp1a1 | Mttp transcripts in IEC in vivo [7, 14]: downregulation of Mttp | Th1 and Th2 cytokines (IL-13, IFN-γ) from colon explants [7, 15]: production of Th2 and Th1 cytokines including IL-13 and IFN-γ | colon length [7, 15]: colon shortening | histological pathology of the colon [7, 15]: histological pathology characterized by superficial inflammation of the gut wall, neutrophil accumulation and ulceration of the epithelial layer of the colon | weight loss [7, 15]: increased weight loss | clinical symptoms, pathology, inflammation in CD1d-deficient animals ([7]; intra-rectal challenge, CD1d-deficient (KO) vs WT): no evidence of clinical symptoms or pathology | effect of skin pre-sensitization with the other compound (oxazolone or TMO) on rectal responses ([7]; topical sensitization followed by intra-rectal challenge): did not affect | metabolite that D5-Trp was further metabolized to upon stimulation [8]: xanthurenic acid | AhR transcriptional activity [9]: induced robust AhR transcriptional activity | Ido1 transcripts [2]: induced expression of these genes in vitro and in vivo | Mttp transcripts [2]: suppressed

O=C(O)c1cc(=O)c2ccccc2[nH]1 [kyneurenic acid, reference compound]
CD1d-restricted IL-10 production [1, 13]: had no effect

C=CC1(C)OC(=O)N(c2cc(Cl)cc(Cl)c2)C1=O (stereo not shown) [vinclozolin]
AhR activation [10]: AhR activator | transcriptional and CD1d-restricted epithelial responses relative to oxazolone stimulation [11]: phenocopied | Cyp1a1 transcripts [2]: induced expression of these genes in vitro and in vivo | Ido1 transcripts [2]: induced expression of these genes in vitro and in vivo
